Patent publication US11034673B2, “(S)-N-(3-(6-isopropoxypyridin-3-yl)-1H-indazol-5-yl)-1-(2-(4-(4-(1-methyl-1H-1,2,4-triazol-3-yl)phenyl)-3,6-dihydropyridin-1(2H)-yl)-2-oxoethyl)-3-(methylthio)pyrrolidine-3-carboxamide compositions for pharmaceutical preparations” (Merck Sharp & Dohme Corp., priority 2014, dated 2021)

Assay: solubility of crystalline form
Format: physicochemical

solubility: poor solubility
SMILES: CS[C@@]1(C(=O)Nc2ccc3[nH]nc(-c4ccc(OC(C)C)nc4)c3c2)CCN(CC(=O)N2CC=C(c3ccc(-c4ncn(C)n4)cc3)CC2)C1 [crystalline hydrate Form 2, (S)—N-(3-(6-isopropoxypyridin-3-yl)-1H-indazol-5-yl)-1-(2-(4-(4-(1-methyl-1H-1,2,4-triazol-3-yl)phenyl)-3,6-dihydropyridin-1(2H)-yl)-2-oxoethyl)-3-(methylthio)pyrrolidine-3-carboxamide]
